Measurements taken from article PMC4783772, “PEGylated substrates of NSP4 protease: A tool to study protease specificity” (Scientific Reports, 2016).
Like-named read-outs stand apart in the source and are kept apart here. Square brackets hold non-standard residues; d marks the D form. Side chains are listed from the residue outwards. Peptide text beside a SMILES is read from it. * marks the point of attachment. 2Abz = Nc1ccccc1C(=O)O; Cbz = O=C(OCc1ccccc1)*; Dap = NC[C@H](N)C(=O)O; X1 = N=C(N)NCCOCC(=O)*; AEEA = NCCOCCOCC(=O)O

Columns and labels:
hNSP4 [1] = test: Proteolytic cleavage pattern / stability with hNSP4 by HPLC; assay type: biochemical, human; conditions: hNSP4 14 nM, RP-HPLC; for stability of the cleaved fluorescent fragment with hNSP4: up to 48 h
Description: Figure 4 HPLC analysis of substrate 1 (1.97 μM) incubated with hNSP4 (14 nM) at different time points: 0, 15 min, 24 h and 48 h.
For each sample of diluted substrate (concentrations 1.97 × 10^−6 M), the appropriate amount of enzyme (1.46 × 10^−8 M) was added, and the solution was incubated for 5, 30, and 60 min. The progress of the proteolytic reaction was monitored by RP-HPLC. The individual peaks resulting from the hydrolysis reaction were collected and identified using the mass spectra which were recorded on a Biflex III MALDI TOF mass spectrometer (Bruker Daltonics, Germany) using α-cyano-4-hydroxycinnamic acid as a matrix.

[2] = qualitative statement
human NSP4 [3] = target: T1, human NSP4 (Homo sapiens, UniProt Q6UWY2); test: Iterative deconvolution in solution of library ABZ-X4-X3-X2-Arg-ANB-NH2 against NSP4; assay type: biochemical; conditions: ABZ-Dap(O2(Cbz))-Dap(Cbz)-X2-Arg-ANB-NH2, 18 individual peptides; 3.4 × 10^−5 M, NSP4 1.46 × 10^−8 M (Figure 3); pH 7.4, 37 °C, 30 min; fluorescence
T1 construct: made in house; host or cells: Pichia pastoris
T1 sequence (Q6UWY2 32-283): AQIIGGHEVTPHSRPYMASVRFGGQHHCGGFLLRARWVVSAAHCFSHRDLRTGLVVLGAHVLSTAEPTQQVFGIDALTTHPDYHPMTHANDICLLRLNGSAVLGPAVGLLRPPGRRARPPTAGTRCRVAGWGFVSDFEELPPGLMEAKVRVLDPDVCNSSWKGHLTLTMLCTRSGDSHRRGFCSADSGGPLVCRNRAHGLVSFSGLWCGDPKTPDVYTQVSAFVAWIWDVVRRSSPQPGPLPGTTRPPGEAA
Description: In order to construct a novel type of internally quenched library, we used different monoprotected heterobifunctional PEG moieties to diversify a library based on a diaminopropionic acid scaffold (Fig. 1 presents the library formula and its chemical components). The library was synthesized using the mix and split method via Fmoc chemistry. The formation of Dap-PEG conjugates was performed on resin via a submonomeric method (one example of DAPEG-based molecule synthesis is presented in Fig. 2). Our goal was to investigate P2, P3, and P4 subsite preferences with a fixed P1 position occupied by an Arg residue. Each peptide in the library was flanked by a C-terminal amide of 5-amino-2-nitrobenozic acid (acceptor of fluorescence) and an N-terminal 2-amino benzoic acid (fluorescence donor) pair which allowed for simultaneous UV and fluorescence monitoring. Screening process was performed using an iterative mode of deconvolution in solution.
Figure 3 The deconvolution of the library (at average concentration 3.4 × 10^−5 M) with general formula ABZ-X4-X3-X2-Arg-ANB-NH2 against NSP4 (1.46 × 10^−8 M).
For the enzymatic studies, we used human NSP4 expressed in a Pichia pastoris expression system as described in ref. [15]. […] The fluorescence tests were performed using a FluoroStar OMEGA fluorescent microplate reader (BMG, Germany). […]

NSP4 [4] = test: NSP4-mediated proteolysis of substrate 1 in the selectivity panel; assay type: biochemical, human; conditions: substrate 1 1.97 μM; Figure 5
Description: (§1) Figure 5 Incubation of substrate 1 (1.97 μM) with (A) neutrophil serine proteases (cathepsin G, elastase, and proteinase 3) at a concentration of 8.7 nM; (B) set of blood-associated proteases involving cathepsins and kallikreins.
(§2) For the enzymatic studies, we used human NSP4 expressed in a Pichia pastoris expression system as described in ref. [15]. The NSP4 concentration used in the deconvolution of the library was […]. The bovine β-trypsin (Sigma Chem. Co., USA) concentration was determined by spectrophotometric titration with 4-nitrophenyl-4′-guanidinobenzoate (NPGB) at an enzyme concentration oscillating around 10^−6 M. Standardized trypsin solution was used to titrate BPTI (Sigma Chem. Co., USA) which in turn served to determine the solution concentrations of the produced NSP4. The substrate ABZ-Met-Phe-Pro-Arg-ANB-NH2 recently developed in our lab was used. The deconvolution of peptide libraries was carried out by the iterative solution method. The lyophilizates obtained for each sublibrary were dissolved in dimethyl sulfoxide (DMSO) to a final concentration of 5 mg/ml, and then diluted tenfold in an assay buffer. The fluorescence tests were performed using a FluoroStar OMEGA fluorescent microplate reader (BMG, Germany). The excitation and emission wavelengths were 320 nm and 410 nm for the ABZ/ANB. […]

proteinase 3 (PR3) = test: Selectivity: incubation with proteinase 3; assay type: biochemical, human; conditions: substrate 1.97 μM; PR3 10^−8 M, 8.7 nM (Figure 5A legend); pH 7.4, 37 °C, 30 min
Description: as §1, §2

cathepsin G (CatG) = test: Selectivity: incubation with cathepsin G; assay type: biochemical, human; conditions: substrate 1.97 μM; CatG 10^−8 M, 8.7 nM (Figure 5A legend); pH 7.4, 37 °C, 30 min
Description: as §1, §2

[5] = tested on: set of proteases related to blood cells, including cathepsins and kallikreins; test: Selectivity: set of blood-associated proteases (cathepsins and kallikreins); assay type: biochemical; conditions: substrate 1.97 μM, enzymes 10^−8 M, Figure 5B, pH 7.4, 37 °C, 30 min
Description: as §1, §2

[6] = tested on: human neutrophil elastase (HNE); test: Selectivity: incubation with neutrophil elastase; assay type: biochemical; conditions: substrate 1.97 μM; HNE 10^−8 M, 8.7 nM (Figure 5A legend); pH 7.4, 37 °C, 30 min
Description: as §1, §2

human NSP4 [7] = target: T1, human NSP4; test: Determination of kinetic parameters (KM, kcat, kcat/KM) of substrate hydrolysis by NSP4; assay type: biochemical; conditions: for kcat/KM: calculated from kcat and KM values
Description: For the enzymatic studies, we used human NSP4 expressed in a Pichia pastoris expression system as described in ref. [15]. The NSP4 concentration used in the deconvolution of the library was […]. The bovine β-trypsin (Sigma Chem. Co., USA) concentration was determined by spectrophotometric titration with 4-nitrophenyl-4′-guanidinobenzoate (NPGB) at an enzyme concentration oscillating around 10^−6 M. Standardized trypsin solution was used to titrate BPTI (Sigma Chem. Co., USA) which in turn served to determine the solution concentrations of the produced NSP4. The substrate ABZ-Met-Phe-Pro-Arg-ANB-NH2 recently developed in our lab was used. The deconvolution of peptide libraries was carried out by the iterative solution method. The lyophilizates obtained for each sublibrary were dissolved in dimethyl sulfoxide (DMSO) to a final concentration of 5 mg/ml, and then diluted tenfold in an assay buffer. The fluorescence tests were performed using a FluoroStar OMEGA fluorescent microplate reader (BMG, Germany). The excitation and emission wavelengths were 320 nm and 410 nm for the ABZ/ANB. Enzymatic hydrolysis of the peptide was performed in 20 mM Tris-Cl buffer supplemented by 150 mM NaCl (pH 7.4) at 37 °C and continued over 30 min.
Assay conditions for the determination of the Michaelis constants (KM) and catalytic constants (kcat) were as noted above. The specificity constants (kcat/KM) were calculated from kcat and KM values. Measurements were performed with an enzyme concentration of 1.46 × 10^−9 M. Three to five measurements were carried out for each compound (systematic error expressed as a standard deviation never exceeded 20%). The calculated initial hydrolysis rates were used as a measure of the substrate activity of the investigated peptides. All details of kinetic studies and the method of calculating kinetic parameters have been described elsewhere.

hNSP4 [8] = test: Detection limit of hNSP4 with substrate 1; assay type: biochemical, human
Description: The incubation of substrate 1 with decreasing amounts of hNSP4 yielded a visible fluorescence (signal-to-noise ratio of 3:1) at 10^−11 M of the studied enzyme (Fig. S8).
as §2

KLK14 = test: Selectivity: incubation with KLK14; assay type: biochemical, human; conditions: substrate 1.97 μM; Figure 5B; pH 7.4, 37 °C, 30 min
Description: as §1, §2

NSP4 [9] = conditions: cited from earlier work
Description: Table 2 Kinetic parameters of reported artificial substrates of NSP4. | column: kcat [s^−1]; KM [μM]; kcat/KM M^−1 × s^−1

[10] = 20 mM Tris-Cl, 150 mM NaCl, pH 7.4, 37 °C, NSP4 1.46 × 10^−9 M, fluorescence ex 320 / em 410 nm, three to five measurements, SD never exceeded 20%

With `N=C(N)NCCC[C@H](NC(=O)[C@H](CNC(=O)COCCNC(=N)N)NC(=O)[C@H](CNC(=O)OCc1ccccc1)NC(=O)[C@H](CNC(=O)COCCOCCNC(=O)OCc1ccccc1)NC(=O)c1ccccc1N)C(=O)O` [ABZ-Dap(O2(Cbz))-Dap(Cbz)-Dap(GO1)-Arg-OH] (H-[2Abz][Dap]([AEEA-Cbz])[Dap](Cbz)[Dap](X1)R-OH) the “stability of the cleaved fluorescent fragment with hNSP4” value (hNSP4 [1]) was “no further degraded up to 48 h” and the “stability of the cleaved fluorescent fragment with hNSP4” value (hNSP4 [1]; listed as cleaved N-terminal fragment of the peptidomimetic chain) was “exceptional proteolytic stability”.
In the case of “ABZ-Dap(O2(Cbz))-Dap(Cbz)-Dap(GO1)-Arg-ANB-NH2 [substrate 1, internally quenched peptidomimetic substrate of NSP4]”, the “cleavage site by hNSP4” value (hNSP4 [1]; substrate 1 1.97 μM, 0, 15 min, 24 h, 48 h, MS identification) is reported as “cleavage of the peptide bond located between Arg and ANB-NH2”, the solubility in water [2] is reported as “excellent solubility in water” and the “proteolysis / fluorescent intensity, peptides modified at X2” value (human NSP4 [3]) is reported as “most susceptible for NSP4-mediated proteolysis”. For the same molecule, the “susceptibility to NSP4-mediated proteolysis” value (NSP4 [4]) was “susceptible to NSP4-mediated proteolysis”, the “proteolysis by PR3” value (proteinase 3 (PR3)) was “no visible proteolysis” and the “proteolysis by CatG” value (cathepsin G (CatG)) was “no visible proteolysis”. The “cleavage by other blood-associated proteases” value [5] was “No other proteolytic enzyme at a concentration of 10^−8 M was able to cleave any of the peptide bonds”, the “proteolysis by HNE” value [6] was “no visible proteolysis” and the Km (human NSP4 [7]; [10]) was 7.6 ± 0.5 µM. For the same molecule, the kcat (human NSP4 [7]; [10]) was 1 s⁻¹, the kcat (human NSP4 [7]; 20 mM Tris-Cl, 150 mM NaCl, pH 7.4, 37 °C, NSP4 1.46 × 10^−9 M, fluorescence ex 320 / em 410 nm, three to five measurements, SD never exceeded 20%, listed as ABZ-Dap(O2(Cbz))-Dap(Cbz)-Dap(GO1)-Arg-ANB-NH2) was 1.0 ± 0.1 s⁻¹ and the kcat/KM (human NSP4 [7]; pH 7.4, 37 °C, NSP4 1.46 × 10^−9 M) was 130000 M⁻¹ s⁻¹. The kcat/KM (human NSP4 [7]; pH 7.4, 37 °C, NSP4 1.46 × 10^−9 M, listed as ABZ-Dap(O2(Cbz))-Dap(Cbz)-Dap(GO1)-Arg-ANB-NH2) was 131,579 M^−1 × s^−1, the kcat/KM (human NSP4 [7]; pH 7.4, 37 °C, NSP4 1.46 × 10^−9 M, listed as the developed compound) was “over 1.31 × 10^5 M^−1 × s^−1” and the “specificity (kcat/KM) relative to substrate selected by Kasperkiewicz et al. [19]” value (human NSP4 [7]; comparison with literature substrate, Kasperkiewicz et al.[19]) was 4 times higher. The “detection limit in words” value (hNSP4 [8]; NSP4 detection with substrate 1) was “subnanomolar”, the “detection limit (hNSP4 concentration giving visible fluorescence)” value (hNSP4 [8]; signal-to-noise ratio of 3:1, constant amount of substrate 1, decreasing amounts of hNSP4, Fig. S8) was 10^−11 M and the “degradation by KLK14 compared with NSP4” value (KLK14) was “to a much lesser extend to degradation by KLK14”.
In the case of Ac-hCha-Phe(4-guanidine)-Oic-Arg-ACC, the Km (NSP4 [9]; ref [19]) is listed as 61 ± 9.1 µM, the kcat (NSP4 [9]; ref [19]) is listed as 2.0 ± 0.5 s⁻¹ and the kcat/KM (NSP4 [9]; ref [19]) is listed as 32,786 M^−1 × s^−1.
In the case of “MCA-PEG-Ile-Arg-Arg-Ser-Ser-Tyr-Ser-Phe-Lys(Dnp)-Lys”, the Km (NSP4 [9]; ref [18]) is given as 13.8 ± 3.3 µM, the kcat (NSP4 [9]; ref [18]) is given as 0.136 ± 0.008 s⁻¹ and the kcat/KM (NSP4 [9]; ref [18]) is given as 10,000 M^−1 × s^−1.
